Data on two compounds can be found in patent US20240050434A1, “HORMAD1 THERAPEUTICS” (Royal Cancer Hospital, priority 2020, published 2024).

“Also recorded” adds a separate entry of the source.

The test system of assay [1] is HORMAD1-positive and HORMAD1-negative triple negative breast cancer patient-derived organoids. Nature of the assay: Patient-derived TNBC organoids, viability by cell titre glo. As to conditions: 14 days. Format: cell-based, human. The source says: RPE1 cells were reverse transfected with BUB1 or control siRNA particles for 3 days. Cell lysates were collected, and analysed by western blotting using anti-BUB1 and anti-β-ACTIN antibodies. B. Graph indicating reduced cellular survival in HORMAD1 expressing RPE1 cells depleted of BUB1 using siRNA. RPE1 cells expressing a doxycycline-inducible HORMAD1 expression construct were exposed to doxycycline or vehicle, and were reverse transfected with BUB1 or control siRNA particles. 5 days post transfection, cellular viability was estimated using cell titer glo reagent and surviving fractions were calculated relative to DMSO treated cells. […] Statistical significance estimated using a one-way ANOVA with Sidak's correction. C. […] 7-10 days post doxycycline induction, cells were fixed, stained with SRB, and cellular viability was estimated using SRB absorbance readings. […] Cells were fixed, stained with SRB, and cellular viability was estimated using SRB absorbance readings. […] Cells were imaged every 4 hours, and confluence was continually measured using incucyte software. […] Cellular viability was estimated using cell titer glo reagent and surviving fractions were calculated relative to DMSO treated cells. […]
A further experiment was conducted to test the efficacy of BUB1 inhibitors to selectively kill HORMAD1-positive human tumours. […] Surviving fractions were calculated (normalised to vehicle treated cells). […]

Assay [2] relates to RPE1 cells expressing a doxycycline-inducible HORMAD1 construct. Nature of the assay: Incucyte time-lapse confluence/proliferation in RPE1 cells with doxycycline-inducible HORMAD1. Format: cell-based. As to conditions: for cellular growth / fitness of HORMAD1 expressing RPE1 cells versus vehicle-induced cells under drug: incucyte confluence, 200 nM BOS172722 or 20 nM AZD1152-HQPA 10 days, 3 μM BAY-1816032 14 days. How it is done:
Cell confluence was analysed every 6 hours for 10 days, using incucyte software. Data are from 3 biological replicates and analysed using a two-way ANOVA. […] RPE1 cells expressing a doxycycline-inducible HORMAD1 expression construct were exposed to doxycycline or vehicle (H2O) and were exposed to 20 nM of the Aurora B inhibitor, AZD1152-HQPA. Cell confluence was analysed every 6 hours for 10 days, using incucyte software. Data are from 3 biological replicates and analysed using a two-way ANOVA. […] 7-10 days post drugging, cells were fixed, stained with SRB, and colonies were counted using Cell Profiler. […] 10 days post drugging, cells were fixed, stained with SRB, and colonies were counted using Cell Profiler. […] RPE1 cells expressing a doxycycline-inducible HORMAD1 expression construct were exposed to doxycycline or vehicle (H2O) and to increasing doses of the Aurora B inhibitor, AZD1152-HQPA. 7-10 days post drugging, cells were fixed, stained with SRB, and colonies were counted using Cell Profiler. […] SUM159 cells expressing a doxycycline-inducible HORMAD1 expression construct were exposed to doxycycline or vehicle (H2O) and to increasing doses of the Aurora B inhibitor, AZD1152-HQPA. 10 days post drugging, cells were fixed, stained with SRB, and colonies were counted using Cell Profiler.
RPE1 cells were reverse transfected with BUB1 or control siRNA particles for 3 days. Cell lysates were collected, and analysed by western blotting using anti-BUB1 and anti-β-ACTIN antibodies. […] RPE1 cells expressing a doxycycline-inducible HORMAD1 expression construct were exposed to doxycycline or vehicle, and were reverse transfected with BUB1 or control siRNA particles. 5 days post transfection, cellular viability was estimated using cell titer glo reagent and surviving fractions were calculated relative to DMSO treated cells. […] Statistical significance estimated using a one-way ANOVA with Sidak's correction. C. […] Cell lysates were collected, and analysed by SDS-PAGE and western blotting using anti-HORMAD1, anti-H3 and anti-BUB1 antibodies. […] 7-10 days post doxycycline induction, cells were fixed, stained with SRB, and cellular viability was estimated using SRB absorbance readings. […] Cells were fixed, stained with SRB, and cellular viability was estimated using SRB absorbance readings. […] Cells were imaged every 4 hours, and confluence was continually measured using incucyte software. […] Patient-derived organoids models were grown in culture and cell lysates collected and analysed using SDS-PAGE and western blotting using anti-HORMAD1 and anti-β-ACTIN antibodies. […] Cellular viability was estimated using cell titer glo reagent and surviving fractions were calculated relative to DMSO treated cells. […]

Regarding `CCN(CCO)CCCOc1ccc2c(Nc3cc(CC(=O)Nc4cccc(F)c4)[nH]n3)ncnc2c1` [AZD1152-HQPA], the “growth inhibition of HORMAD1 expressing versus HORMAD1-negative patient-derived organoids (AURORA B inhibitor)” value in assay [1] (BTBC673PO versus WHIM21XO, BXO88XO, BXO78XO) is “growth inhibition was more effective”. The “cellular growth / fitness of HORMAD1 expressing RPE1 cells versus vehicle-induced cells under drug” value in assay [2] is reported as “marked decrease in cellular growth; also recorded: decreased cellular fitness”.
On to `COc1cnccc1Nc1nc(-c2nn(Cc3c(F)cc(OCCO)cc3F)c3ccccc23)ncc1OC` [BAY-1816032], for which, in assay [1] (3 HORMAD1-positive and 5 HORMAD1-negative models), the “growth inhibition of HORMAD1-expressing versus HORMAD1-negative patient-derived organoids (BUB1 inhibitor)” value is “more effectively inhibited; also recorded: increased BUB1 inhibitor sensitivity”. In assay [2] (3 μM, 240 hours, incucyte), the “confluency reached, HORMAD1 expressing RPE1 cells” value is listed as “around 15%” and the “confluency reached, RPE1 cells without HORMAD1 expression” value is about 85%. In assay [2], the “cellular growth / fitness of HORMAD1 expressing RPE1 cells versus vehicle-induced cells under drug” value was “decreased cellular fitness”.
